Assay results reported in US20040266862A1, “Method of improving animal tissue quality by supplementing the animal diet with mixed tocotrienols” (priority 2003, published 2004).
Marks after values point to notes of the source that are not given here.

Experiments:
Type in all cases: in vivo
[1] = tested on: cattle; test: 2002-03 cattle feed test: sensory characteristics of cooked ribeye steaks; details: freshly cooked ribeye steaks; scale of 1 to 8; 300 ppm in diet
From the text: (§1) Applicants also assessed the effects of antioxidant supplementation on beef quality in an experiment in which ground beef and steaks from cattle fed one of four dietary treatments were compared. Forty steers (average weight 1082 lbs.) were blocked by weight (heavy or light) and assigned to eight outdoor group pens. Pens were randomly assigned within weight blocks to four dietary treatments (two pens per dietary treatment): control, 300 ppm gamma-tocopherol, 150 ppm MT or 300 ppm MT. As in the swine and poultry feed trials, the MT supplement was obtained commercially from Fuji Chemical Industries (U.S.A.) Inc. of Robbinsville, N.J., and contained 7.5% alpha-, 12.3% gamma- and 3.0% delta-tocotrienol for a total MT content of 22.8 wt %, as well as 7.2% alpha-tocopherol. The control diet was not supplemented with even the NRC (1996) recommended level of vitamin E (15 to 60 ppm).
(§2) The steers were fed rolled corn diets with added cottonseed hulls that contained little or no vitamin E. The corn grain used in this trial was more than two years old so that it would be largely depleted of vitamin E. The steers were gradually adapted to an 80% grain-based diet and fed the low vitamin E diet for over one month prior to the start of the dietary supplementation period. Steers then were fed their respective dietary treatments for 54 days, starting Dec. 18, 2002 and ending Feb. 10, 2003.
(§3) The dietary treatments were top-dressed onto the feed and mixed with the morning daily feed. The target level for feeding gamma-tocopherol was calculated to be 2 g per animal per day. Mineral oil was used as a carrier for the gamma-tocopherol. The two target amounts of mixed tocotrienols were equivalent to, or half of, the gamma tocopherol level. The MT compounds were diluted with cornmeal to supply the required amount of mixed tocotrienols.
(§4) On the day following delivery of the beef rib sections to Kansas State University, ribs were boned out, vacuum packaged, and held at approximately (2° C.) until thirteen days postmortem, at which time the ribs were faced at the 13th rib region. The ribs were cut into 2.54 cm thick ribeye steaks, one steak from each rib to be used for color appraisal under retail display conditions and one steak for sensory evaluation. The steaks for sensory evaluation were vacuum-packaged and frozen.
The frozen ribeye steaks designated for sensory evaluation were thawed for >24 hours at 3-4° C. and cooked in a Blodgett oven set at 163° C. The steaks were turned at 40° C. and removed from the oven at 70° C. The cooked steaks were cut into 2.54 cm×1.25 cm×1.25 cm cubes. The cubes were placed in double boilers and held warm on burners set at 107° C. until serving. Each panelist received two cubes in random order with a maximum of eight samples per session. An eight-point scale with 0.5 increments was used to score sensory attributes, with 8 being most tender, flavorful, or juicy and 1 being the least tender, flavorful, or juicy.

[2] = tested on: cattle; test: 2002-03 cattle feed test: TBARS content of raw ribeye steaks; details: 300 ppm in diet
From the text: as §1, with “The control diet was not supplemented with even the NRC (1996) recommended level of vitamin E (15 to 60 ppm).” left out
(§5) The dietary treatments were top-dressed onto the feed and mixed with the morning daily feed. The target level for feeding gamma-tocopherol was calculated to be 2 g per animal per day. […]
The ribeye steaks utilized for color evaluation were placed onto 17S foam trays with meat, fish, and poultry pads (Dri-Loc AC-50) and wrapped with polyvinyl chloride film. […] Case temperature was monitored using temperature recorders. […] Pre-storage color was evaluated on an eight point scale. Panelists evaluated post-13 day storage color using a five-point scale with 0.5 intervals. […]

[3] = tested on: cattle; test: 2002-03 cattle feed test: raw ribeye steak subjective color; details: 300 ppm in diet
From the text: as §1, §2, §3, §4
(§6) The ribeye steaks utilized for color evaluation were placed onto 17S foam trays with meat, fish, and poultry pads (Dri-Loc AC-50) and wrapped with polyvinyl chloride film. The packaged steaks were placed under simulated retail display at 34±3° F. under 1614 lux (150±5 foot candles) light intensity in open-top display cases. The cases were programmed to defrost twice daily at 12-hour intervals. Case temperature was monitored using temperature recorders. An eight-member trained panel assigned subjective color and discoloration scores on days 0, 1, 2, 3, 4, 5 and 7. Pre-storage color was evaluated on an eight point scale. Panelists evaluated post-13 day storage color using a five-point scale with 0.5 intervals. Minolta color measurements were taken on days 0 and 7 using a Hunter Lab MiniScan™ Spectrophotometer (1.25 inch diameter aperture).

[4] = tested on: cattle; test: 2002-03 cattle feed test: raw ribeye steak Hunter Lab color evaluation
From the text: as §1, §2, §3, §4, §6

[5] = tested on: cattle; test: 2002-03 cattle feed test: moisture, fat and TBARS content of raw ground beef patties; details: 300 ppm in diet
From the text: as §1, with “ppm). […]” for “ppm).”
as §5
Four pounds of lean and one pound of fat were harvested from each steer and mixed to produce ground beef patties with a targeted fat content of 20%. […] The pre- and post-display ground beef patties were analyzed for oxidative stability by determining their TBARS concentration.

With `Cc1c(O)cc2c(c1C)O[C@](C)(CCC[C@H](C)CCC[C@H](C)CCCC(C)C)CC2` [GT, gamma-tocopherol] the Flavor intensity [1] was 5.9, the Juiciness [1] was 5.7 and the Off-flavor intensity [1] was 7.7. The Overall tenderness [1] was 6.1^a, the Warmed over flavor [1] was 8.0 and the TBARS content ([2]; Post-display) was 0.411^b Mg Malonaldehyde/1000 g steak. The TBARS content ([2]; Pre-display) was 0.076 Mg Malonaldehyde/1000 g steak, the subjective color score ([3]; Pre-storage, eight point scale (1.0 = Bleached red, 8.0 = Very dark red)) was 4.34 and the subjective color score ([3]; post-13 day storage, display Day 0, five-point scale (1.0 = Very bright cherry red, 5.0 = Very dark red/purple to brown)) was 2.19. It also gave a subjective color score ([3]; post-13 day storage, display Day 1, five-point scale) of 2.28, a subjective color score ([3]; post-13 day storage, display Day 2, five-point scale) of 2.29 and a subjective color score ([3]; post-13 day storage, display Day 3, five-point scale) of 2.61. For the same compound, the subjective color score ([3]; post-13 day storage, display Day 4, five-point scale) was 2.80^b, the subjective color score ([3]; post-13 day storage, display Day 5, five-point scale) was 3.02^b and the subjective color score ([3]; post-13 day storage, display Day 7, five-point scale) was 3.29^b. The “Pre-display pH” value ([4]; 300 ppm in diet) was 5.53, the “Hunter L” value ([4]; display Day 0, 300 ppm in diet) was 41.35 and the Hunter a ([4]; display Day 0, 300 ppm in diet) was 32.82. The Hunter b ([4]; display Day 0, 300 ppm in diet) was 25.33, the “Hunter L” value ([4]; display Day 7, 300 ppm in diet) was 40.03^b and the Hunter a ([4]; display Day 7, 300 ppm in diet) was 30.26^b. For the same compound, the Hunter b ([4]; display Day 7, 300 ppm in diet) was 23.35^b, the TBARS content ([5]; Post-display (5 days retail display)) was 0.663^ab Mg Malonaldehyde/1000 g ground beef and the TBARS content ([5]; Pre-display) was 0.173 Mg Malonaldehyde/1000 g ground beef.
